According to ChEMBL document CHEMBL1201862, “PubChem BioAssay data set” (2004):
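96-well plates; 48 h exposure; 5 concentrations. Endpoints by linear interpolation between flanking doses. Not reached: highest tested concentration assigned. The concentration for 50% growth inhibition is given as GI50.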 Activity calls are given as the source filed them. Rule as the data show it: active = GI50 up to about 1.1 µM and inactive = higher.

How the values were obtained:
Experiment in all cases: NCI tumour cell line growth inhibition, 48 h
A498 = system: A498
BT-549 = system: BT-549
CAKI-1 = system: CAKI-1
EKVX = system: EKVX
Hs-578T = system: Hs-578T
IGROV-1 = system: IGROV-1
K562 = system: K562
KM12 = system: KM12
MDA-MB-231 = system: MDA-MB-231
MDA-MB-435 = system: MDA-MB-435
MDA-N = system: MDA-N
OVCAR-3 = system: OVCAR-3
RPMI-8226 = system: RPMI-8226
SF-268 = system: SF-268
SK-MEL-5 = system: SK-MEL-5
SW-620 = system: SW-620
UACC-62 = system: UACC-62
UO-31 = system: UO-31
NCI-H522 = system: NCI-H522

Measured: GI50

N#CC(C#N)=C(N)/C(C#N)=C/c1ccc2ccccc2n1
inactive: A498 > 100 µM | BT-549 26.5 µM | CAKI-1 22.6 µM | EKVX > 100 µM | Hs-578T 21.7 µM | IGROV-1 16.9 µM | K562 32.6 µM | KM12 19.5 µM | MDA-MB-231 23.7 µM | MDA-MB-435 30.5 µM | MDA-N 32.7 µM | OVCAR-3 13.5 µM | RPMI-8226 36.9 µM | SF-268 > 100 µM | SK-MEL-5 23.8 µM | SW-620 > 10 µM | UACC-62 18.8 µM | UO-31 15.5 µM

C=CC[C@@H](N)C(=O)N(C)[C@@H](C)[C@@H](O)c1ccccc1
inactive: A498 > 100 µM | BT-549 > 100 µM | CAKI-1 > 100 µM | Hs-578T > 100 µM | IGROV-1 82.8 µM | KM12 > 100 µM | MDA-MB-231 > 100 µM | MDA-MB-435 > 100 µM | MDA-N > 100 µM | NCI-H522 12.4 µM | OVCAR-3 > 100 µM | SF-268 > 100 µM | SK-MEL-5 > 100 µM | SW-620 > 100 µM | UACC-62 > 100 µM | UO-31 > 100 µM

COC(=O)C(C)(C)OCc1ccc(C2NC(=O)N(c3cccc(Cl)c3)C(=O)N2c2cccc(Cl)c2)cc1 (centres undefined)
inactive: BT-549 51.1 µM | CAKI-1 35.2 µM | EKVX 10.5 µM | Hs-578T 3.96 µM | IGROV-1 22 µM | K562 7.45 µM | KM12 23.7 µM | MDA-MB-231 55 µM | MDA-MB-435 46 µM | MDA-N 55.8 µM | NCI-H522 10.6 µM | OVCAR-3 56.2 µM | RPMI-8226 9.16 µM | SF-268 26.1 µM | SK-MEL-5 10.7 µM | SW-620 75.5 µM | UACC-62 36.6 µM | UO-31 25.3 µM

CC1(C)OC(=O)C(C)(C)C(=O)O1
inactive: BT-549 > 100 µM | CAKI-1 > 100 µM | EKVX > 100 µM | Hs-578T > 100 µM | IGROV-1 > 100 µM | K562 > 100 µM | KM12 > 100 µM | MDA-MB-231 > 100 µM | MDA-N > 100 µM | NCI-H522 > 100 µM | SF-268 > 100 µM | SK-MEL-5 > 100 µM | SW-620 > 100 µM | UACC-62 > 100 µM | UO-31 > 100 µM

CCCCCCc1cc(C=O)sc1-c1ccc(-c2sc(-c3ccc(-c4ccc(-c5cc(CCCCCC)c(-c6ccc(-c7sc(C=O)cc7CCCCCC)s6)s5)s4)s3)cc2CCCCCC)s1
inactive: A498 > 100 µM | BT-549 > 100 µM | CAKI-1 > 100 µM | EKVX > 100 µM | IGROV-1 > 100 µM | K562 > 100 µM | KM12 > 100 µM | MDA-MB-231 > 100 µM | MDA-MB-435 > 100 µM | MDA-N > 100 µM | NCI-H522 91.4 µM | OVCAR-3 > 100 µM | RPMI-8226 > 100 µM | SF-268 85.9 µM | SK-MEL-5 > 100 µM | SW-620 > 100 µM | UACC-62 > 100 µM | UO-31 > 100 µM

CCN1c2cc(Br)cc3[nH]c(=O)n(c23)CCC1C (centres undefined)
inactive: A498 12.3 µM | BT-549 6.85 µM | CAKI-1 11.6 µM | EKVX 1.43 µM | Hs-578T 3.46 µM | IGROV-1 13.9 µM | K562 5.58 µM | KM12 15.1 µM | MDA-MB-231 17.3 µM | MDA-MB-435 4.18 µM | MDA-N 4.89 µM | OVCAR-3 14.6 µM | RPMI-8226 10.3 µM | SF-268 14.2 µM | SK-MEL-5 15.2 µM | SW-620 5.48 µM | UACC-62 5.16 µM | UO-31 14 µM

CC[C@]12C=CCN3CC[C@@]4(c5cc(Br)c(OC)cc5N(C)[C@H]4[C@@](O)(C(=O)NC(Cc4c[nH]c5ccccc45)C(=O)OC)[C@@H]1O)[C@@H]32 (some centres undefined)
inactive: BT-549 7.94 µM | CAKI-1 86.1 µM | EKVX 18.4 µM | Hs-578T 58.3 µM | IGROV-1 19.4 µM | K562 5.37 µM | KM12 11 µM | MDA-MB-231 30.6 µM | MDA-MB-435 26.2 µM | MDA-N 23.3 µM | NCI-H522 8.83 µM | OVCAR-3 9.16 µM | RPMI-8226 2.94 µM | SF-268 6.15 µM | SK-MEL-5 7.31 µM | SW-620 89.7 µM | UACC-62 24.3 µM | UO-31 20.8 µM

Cn1c2ccccc2c2c3c(c4c5ccccc5n(C)c4c21)C(=O)N(c1ccccc1)C3=O
inactive: A498 > 100 µM | BT-549 > 100 µM | CAKI-1 > 100 µM | EKVX > 100 µM | IGROV-1 98.6 µM | K562 > 100 µM | KM12 > 100 µM | MDA-MB-231 > 100 µM | MDA-MB-435 > 100 µM | MDA-N > 100 µM | NCI-H522 44.4 µM | OVCAR-3 > 100 µM | RPMI-8226 > 100 µM | SK-MEL-5 > 100 µM | SW-620 > 100 µM | UACC-62 > 100 µM | UO-31 > 100 µM

CCOC(=O)CNC(=O)C(CSC(=O)N(O)c1ccc(Cl)cc1)NC(=O)CCC(N)C(=O)OCC (centres undefined)
inactive: BT-549 > 50 µM | CAKI-1 > 50 µM | EKVX 12.5 µM | Hs-578T 1.9 µM | IGROV-1 4.14 µM | K562 11.8 µM | KM12 12.2 µM | MDA-MB-231 21 µM | MDA-MB-435 30.1 µM | MDA-N 36 µM | OVCAR-3 > 50 µM | RPMI-8226 12.1 µM | SF-268 1.88 µM | SK-MEL-5 > 50 µM | SW-620 14.8 µM | UACC-62 > 50 µM | UO-31 > 50 µM

CC(=O)NC1C(OCc2ccccc2)OC(CO)C(O)C1OCC(=O)NC(C(=O)NC(CCC(=O)NCCCCCC(=O)Nc1ccc2c(c1)CN1C(=O)c3ccccc3C1=N2)C(N)=O)C(C)C (centres undefined)
inactive: A498 24.9 µM | BT-549 21.6 µM | CAKI-1 28.8 µM | EKVX 31.6 µM | Hs-578T 23.7 µM | IGROV-1 20.3 µM | K562 36 µM | KM12 19.1 µM | MDA-MB-231 25.5 µM | MDA-MB-435 31.6 µM | MDA-N 62.7 µM | OVCAR-3 67.6 µM | RPMI-8226 97.7 µM | SF-268 19.7 µM | SK-MEL-5 21.4 µM | SW-620 50.6 µM | UACC-62 20.9 µM | UO-31 47.4 µM

COC(=O)N1N=C(c2ccccc2)C1c1ccccc1 (centres undefined)
inactive: A498 24 µM | BT-549 30.5 µM | CAKI-1 33.6 µM | EKVX 42.5 µM | Hs-578T 71 µM | K562 23.8 µM | KM12 47.4 µM | MDA-MB-231 24.6 µM | MDA-MB-435 33.7 µM | MDA-N 31.1 µM | OVCAR-3 37.9 µM | RPMI-8226 26.7 µM | SF-268 62.7 µM | SW-620 48.6 µM | UACC-62 22 µM | UO-31 13.7 µM
